# Source: PubChem BioAssay AID1963978 (Molecular Pharmacology Branch, DTP, NCI, 2024)
# Test system: 616215-338-R-J1-PDC spheroids with HUVEC/MSC, viability
# Assay: Anticancer human tumor 616215-338-R-J1-PDC patient-derived colon adenocarcinoma cell line growth inhibition [PI3K]
# Details: for IC50: curve of first compound; for viability, T/C: stronger effect = lower value
# In short: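 Tumor cells were combined with HUVEC and MSCs into spheroids, then dosed with PI3K-inhibitor combinations over half-log ranges capped near clinical Cmax or 10 microM.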
# [1] = second compound 0.0316 µM, first compound 0.0316 µM
# [2] = second compound 0.0316 µM, first compound 0.1 µM
# [3] = second compound 0.1 µM, first compound 0.0316 µM
# [4] = second compound 0.1 µM, first compound 0.1 µM
# [5] = second compound 0.316 µM, first compound 0.0316 µM
# [6] = second compound 0.316 µM, first compound 0.1 µM
# [7] = second compound 1 µM, first compound 0.0316 µM
# [8] = second compound 1 µM, first compound 0.1 µM
# [9] = second compound 3.16 µM, first compound 0.0316 µM
# [10] = second compound 3.16 µM, first compound 0.1 µM
# [11] = second compound 10 µM, first compound 0.0316 µM
# [12] = second compound 10 µM, first compound 0.1 µM
# 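Note: spheroids exposed to agents for seven days before the viability read.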
structure (smiles),measurement,setting,value
Cn1ncc(Cl)c1-c1cc(C(=O)NC(CN)Cc2cccc(F)c2)sc1Cl (centres undefined) + Cc1nc(NC(=O)N2CCCC2C(N)=O)sc1-c1ccnc(C(C)(C)C(F)(F)F)c1,IC50,second compound 0.0316 µM,6.95 µM
same,IC50,second compound 0.1 µM,6.73 µM
same,IC50,second compound 0.316 µM,6.48 µM
same,IC50,second compound 1 µM,9.17 µM
same,IC50,second compound 3.16 µM,5.85 µM
same,IC50,second compound 10 µM,4.01 µM
same,"viability, T/C",[1],96%
same,"viability, T/C",[2],93.5%
same,"viability, T/C","second compound 0.0316 µM, first compound 0.316 µM",102%
same,"viability, T/C","second compound 0.0316 µM, first compound 1 µM",91.5%
same,"viability, T/C","second compound 0.0316 µM, first compound 3.16 µM",82.5%
same,"viability, T/C","second compound 0.0316 µM, first compound 10 µM",35.2%
same,"viability, T/C",[3],102%
same,"viability, T/C",[4],95.8%
same,"viability, T/C","second compound 0.1 µM, first compound 0.316 µM",92.3%
same,"viability, T/C","second compound 0.1 µM, first compound 1 µM",89%
same,"viability, T/C","second compound 0.1 µM, first compound 3.16 µM",76.3%
same,"viability, T/C","second compound 0.1 µM, first compound 10 µM",36.4%
same,"viability, T/C",[5],99.4%
same,"viability, T/C",[6],96%
same,"viability, T/C","second compound 0.316 µM, first compound 0.316 µM",98.8%
same,"viability, T/C","second compound 0.316 µM, first compound 1 µM",96.8%
same,"viability, T/C","second compound 0.316 µM, first compound 3.16 µM",67.6%
same,"viability, T/C","second compound 0.316 µM, first compound 10 µM",39.4%
same,"viability, T/C",[7],109%
same,"viability, T/C",[8],92.9%
same,"viability, T/C","second compound 1 µM, first compound 0.316 µM",106%
same,"viability, T/C","second compound 1 µM, first compound 1 µM",98.4%
same,"viability, T/C","second compound 1 µM, first compound 3.16 µM",73.7%
same,"viability, T/C","second compound 1 µM, first compound 10 µM",48.1%
same,"viability, T/C",[9],91.8%
same,"viability, T/C",[10],95%
same,"viability, T/C","second compound 3.16 µM, first compound 0.316 µM",94.1%
same,"viability, T/C","second compound 3.16 µM, first compound 1 µM",87.7%
same,"viability, T/C","second compound 3.16 µM, first compound 3.16 µM",70%
same,"viability, T/C","second compound 3.16 µM, first compound 10 µM",32.6%
same,"viability, T/C",[11],89.9%
same,"viability, T/C",[12],90.9%
same,"viability, T/C","second compound 10 µM, first compound 0.316 µM",86.3%
same,"viability, T/C","second compound 10 µM, first compound 1 µM",70.5%
same,"viability, T/C","second compound 10 µM, first compound 3.16 µM",59.6%
same,"viability, T/C","second compound 10 µM, first compound 10 µM",22.8%
CC(=O)c1c(C)c2cnc(Nc3ccc(N4CCNCC4)cn3)nc2n(C2CCCC2)c1=O + CC(Nc1ncnc2nc[nH]c12)c1cc2cccc(Cl)c2c(=O)n1-c1ccccc1,IC50,second compound 0.0316 µM,> 0.1 µM
same,IC50,second compound 0.1 µM,> 0.1 µM
same,IC50,second compound 0.316 µM,> 0.1 µM
same,IC50,second compound 1 µM,> 0.1 µM
same,IC50,second compound 3.16 µM,> 0.1 µM
same,IC50,second compound 10 µM,> 0.1 µM
same,"viability, T/C","second compound 0.0316 µM, first compound 0.000316 µM",106%
same,"viability, T/C","second compound 0.0316 µM, first compound 0.001 µM",104%
same,"viability, T/C","second compound 0.0316 µM, first compound 0.00316 µM",93.2%
same,"viability, T/C","second compound 0.0316 µM, first compound 0.01 µM",93.3%
same,"viability, T/C",[1],92.5%
same,"viability, T/C",[2],102%
same,"viability, T/C","second compound 0.1 µM, first compound 0.000316 µM",98.7%
same,"viability, T/C","second compound 0.1 µM, first compound 0.001 µM",105%
same,"viability, T/C","second compound 0.1 µM, first compound 0.00316 µM",99.6%
same,"viability, T/C","second compound 0.1 µM, first compound 0.01 µM",106%
same,"viability, T/C",[3],104%
same,"viability, T/C",[4],118%
same,"viability, T/C","second compound 0.316 µM, first compound 0.000316 µM",110%
same,"viability, T/C","second compound 0.316 µM, first compound 0.001 µM",95.2%
same,"viability, T/C","second compound 0.316 µM, first compound 0.00316 µM",98.4%
same,"viability, T/C","second compound 0.316 µM, first compound 0.01 µM",92.3%
same,"viability, T/C",[5],106%
same,"viability, T/C",[6],114%
same,"viability, T/C","second compound 1 µM, first compound 0.000316 µM",98.2%
same,"viability, T/C","second compound 1 µM, first compound 0.001 µM",104%
same,"viability, T/C","second compound 1 µM, first compound 0.00316 µM",99.5%
same,"viability, T/C","second compound 1 µM, first compound 0.01 µM",107%
same,"viability, T/C",[7],113%
same,"viability, T/C",[8],110%
same,"viability, T/C","second compound 3.16 µM, first compound 0.000316 µM",115%
same,"viability, T/C","second compound 3.16 µM, first compound 0.001 µM",88.1%
same,"viability, T/C","second compound 3.16 µM, first compound 0.00316 µM",99.2%
same,"viability, T/C","second compound 3.16 µM, first compound 0.01 µM",112%
same,"viability, T/C",[9],101%
same,"viability, T/C",[10],103%
same,"viability, T/C","second compound 10 µM, first compound 0.000316 µM",97.8%
same,"viability, T/C","second compound 10 µM, first compound 0.001 µM",94%
same,"viability, T/C","second compound 10 µM, first compound 0.00316 µM",122%
same,"viability, T/C","second compound 10 µM, first compound 0.01 µM",118%
same,"viability, T/C",[11],104%
same,"viability, T/C",[12],90.9%
